Experiments:
[1] = test system: TRPM8; assay: Gene expression custom microarray, human skin fibroblasts (Example 1): TRPM8; type: cell-based; details: 24 hr; for fold induction at 10 µM: Skin fibroblast, read-out: TRPM8↑ gene expression, fold increase or decrease vs untreated cells
Text: Cell cultures: A human skin fibroblast cell culture (or cultures) was obtained through the Coriell Cell Repository from the National Institute on Aging Cell Repository (Camden, N.J.), or Promocell GmbH (Heidelberg, Germany). The initial culture was selected from the following cell lines: AG13066, AG11557, AG11796 or GM03651E. The cell lines were derived from donors as follows:
Experimental phase: When the appropriate quantity of cells had been grown, they were detached as described above, but at the final step were seeded into each well of one or more 6 well dishes. Each well received 2 ml of the cell suspension so they were seeded equally. The dishes were returned to the incubator until 85-95% confluency was reached.
It is at this stage that all wells were rinsed in PBS after aspirating the growth media. The compound(s) to be tested were previously mixed into a suitable solvent (e.g., DMSO or ethanol) that can be diluted to the desired concentration of test compound (10 μl) in the culture wells without exceeding maximum solvent concentrations and adversely effecting cell viability, and mixed with basal media. NOTE: Standard maximum levels of solvent are 0.1% for DMSO and 0.5% for ETOH. The concentration of each test compound is found in Tables 1 & 2.
Every 2 wells on the 6 well plate served as a biological replicate for the purposes of RNA isolation and genetic expression evaluations making each 6 well dish an n=3 for the test compound(s) contained in the media. Negative control plates (no test compound(s) and only basal media) were also generated. The plates were returned to the incubator for 24 hrs.
(§1) At the end of the 24 hr time period, the plates were removed from the incubator, the test media aspirated, and the cells rinsed with PBS. RNA isolation is performed using the BioRad Aurum Total RNA Mini Kit (Hercules, Calif.) per manufacturer's protocol; which is described, in brief, below: • Add 350 μl of lysis buffer to each well. Pipet multiple times to ensure thorough lysis. Add lysed cells to the collection tube. • Add 350 μl of 70% ETOH to the collection tube and mix thoroughly. • Pipet the generated lysate onto the spin column placed in a new 2 ml tube. Centrifuge for 30 sec between 8,000 and 10,000 g. • Place the spin column containing the now bound RNA, in a new 2 ml tube. Add 700 μl of low stringency wash solution to the spin column. Centrifuge for 30 sec between 8,000 and 10,000 g. Discard the flow through and replace spin column. • Add 80 μl of DNase I dilution to the spin column and incubate at room temperature for 15 minutes. • Add 700 μl of high stringency wash solution to the column and centrifuge for 30 sec between 8,000 and 10,000 g. Discard flow through. • Add 700 μl of low stringency wash solution to the column and centrifuge for 60 sec between 8,000 and 10,000 g. Discard flow through. • Centrifuge for 2 minutes to remove residual wash solution. • Transfer spin column to new 1.5 ml collection tube and add 80 μl of elution solution to the column. Allow 1 minute for saturation of the membrane and then centrifuge for 2 minutes to complete the RNA elution. • Quantify the quantity of RNA and store at −20 C° until use (no more than 1 month)
The genes tested were: • Cannabinoid receptor 1 (CB1(CNR1)) • Cannabinoid receptor 2 (CB2 (CNR2)) • Fatty acid amide hydrolase (FAAH) • Monoacylglycerol lipase (MGLL, i.e., MAGL) • Peroxisome proliferator-activated receptor gamma (PPARG) • Nuclear factor kappa-light-chain-enhancer of activated B cells (NFκβ) • Interleukin 1 Alpha (IL1alpha) • Cyclooxygenase 1 (PTGS1, i.e., COX1) • Transient receptor potential cation channel subfamily A member 1 (TRPA1) • Transient receptor potential cation channel subfamily V member 1 (TRPV1) • Transient receptor potential cation channel subfamily M member 8 (TRPM8) • Hemoglobin Subunit Beta (HBB) REFERENCE GENE • Ribosomal Protein L13a (RPL13A) REFERENCE GENE […]

[2] = test system: NFKB1; assay: Gene expression custom microarray, pooled keratinocyte line (Example 3): NFKB1; type: cell-based, human; details: pooled keratinocytes, 20 ppm, 24 hr
Description: NOTE: Standard maximum levels of solvent are 0.1% for DMSO and 0.5% for ETOH.
The plates were returned to the incubator for 24 hrs.
as §1, with “RNA isolation is performed using the BioRad Aurum Total RNA Mini Kit (Hercules, Calif.) per manufacturer's protocol; which is described, in brief, below: • Add 350 μl of lysis buffer to each well.” left out

Structure (SMILES) | fold induction at 10 µM [1] | ↓NFKB1 gene expression, fold increase or decrease vs untreated cells [2] [fold] | TRPM8↑ gene expression, fold increase or decrease vs untreated cells ([1]; 10 uM) [fold]
C=C(C)[C@@H]1CCC(C)=C[C@H]1c1c(O)cc(CCCCC)cc1O [CBD, cannabidiol, reference compound] | 6.1 | 2.5 | –
CCCCCCCCCCCCCCCC(=O)NCCO [N-palmitoylethanolamide] | – | −2.2 | 5.1
CC(C)[C@]12O[C@H]1[C@@H]1O[C@]13[C@]1(O[C@H]1C[C@H]1C4=C(CC[C@@]13C)C(=O)OC4)[C@@H]2O [Triptolide] | 47.6 | −4.2 | –

From patent publication US20220202739A1, “ENDOCANNABINOID MIMETIC AND ANTI-INFLAMMATORY COMPOUND CONTAINING COMPOSITIONS, METHODS OF PREPARATION AND USES THEREOF” (priority 2019, published 2022)
